Patent US11739122B2, “Glycopeptide antibiotic compounds, methods for producing the same, and uses thereof” (Academia Sinica, priority 2019, dated 2023)
In brackets after ≈: the same amount, converted by molar mass. Several values for one entry are separate records, joined by “and”; a condition that tells them apart may be missing. Equal values may be shown once. Read-outs that look alike come from different tables or passages of the source.

Tests used:
MRSA ATCC 43300 = assay: MIC, broth microdilution; assay type: cell-based, Staphylococcus aureus
Protocol: (§1) Determination of Minimal Inhibitory Concentration (MIC) for Vancomycin, Teicoplanin and Tei-Analogs Versus Selected Strains
(§2) MICs were determined by the broth microdilution method. Specifically, 12 Colonies of the test strain were picked up from 18-24 hour agar cultures and freshly inoculated into broth mediums until reaching the turbidity of a 0.5 McFarland standard. The broth culture was adjusted with broth medium to approximately 1×10^8 CFUmL^−1. […] The plates were incubated in 37° C. for 18-24 hours and monitored for the wells of the positive control, where cells grew, and the wells of the negative control, where wells should not grow. The MIC value was determined for the concentration of a test compound, at which there was no visible growth in the well.

MRSA ATCC 700698 hVISA = assay: MIC, broth microdilution; assay type: cell-based, Staphylococcus aureus
Protocol: as §1, §2

MRSA ATCC 700787 VRSA = assay: MIC, broth microdilution; assay type: cell-based, Staphylococcus aureus
Protocol: as §1, §2

MRSA ATCC 700789 VRSA = assay: MIC, broth microdilution; assay type: cell-based, Staphylococcus aureus
Protocol: as §1, §2

MRSA ATCC BAA-38 = assay: MIC, broth microdilution; assay type: cell-based, Staphylococcus aureus
Protocol: as §1, §2

MRSA ATCC BAA-39 = assay: MIC, broth microdilution; assay type: cell-based, Staphylococcus aureus
Protocol: as §1, §2

MRSA ATCC BAA-44 = assay: MIC, broth microdilution; assay type: cell-based, Staphylococcus aureus
Protocol: as §1, §2

S. aureus ATCC 29213 = assay: MIC, broth microdilution; assay type: cell-based, Staphylococcus aureus
Protocol: as §1, §2

E. faecalis ATCC 29302 = assay: MIC, broth microdilution; assay type: cell-based
Protocol: as §1, §2

VRE ATCC 700221 (vanA) = assay: MIC, broth microdilution; assay type: cell-based, enterococci
Protocol: as §1, §2

VRE ATCC 700425 (vanC) = assay: MIC, broth microdilution; assay type: cell-based, enterococci
Protocol: as §1, §2

VRE ATCC 700802 (vanB) = assay: MIC, broth microdilution; assay type: cell-based, enterococci
Protocol: as §1, §2

A. baumannii ATCC 19606 = assay: MIC, broth microdilution; assay type: cell-based, Acinetobacter baumannii
Protocol: as §1, §2

MRSA ATCC 700787 = assay: Thin-section TEM, cell wall morphology; assay type: cell-based, Staphylococcus aureus
Protocol: Thin-Section Transmission Electron Microscopy (TEM)
An overnight cultured MRSA ATCC 700787, VRE ATCC 700221 or A. baumannii ATCC 19606 was individually sub-cultured into a fresh medium. Bacteria at the exponential phase were treated with a given test compound at a concentration of 4×MIC for 1-4 hour at 37° C. and followed by wash and resuspension in PBS. Bacteria cells for the TEM analysis were prepared as follows: Cells were fixed with 2.5% glutaraldehyde for 30 minutes. After the fixation, cells were washed twice with PBS and fixed with 1% osmium tetraoxide for another 30 minutes. All the buffer was removed with distilled water. The cells were then stained with 1% uranyl acetate and dehydrated with a graded ethanol solution. Cells were embedded in resin. Finally, each sample was cut into thin slices of approximately 90 nm with a glass knife and stained with uranyl acetate. The images of bacterial morphological were recorded.
The cell wall/membrane apparently is the targets, while the extent of damage depends on what compound imposes on the strain. […] Cell wall thickening has been a common phenotype in clinical MRSA isolates, which may well be a phenotypic determinant for VRSA. The systemic cell-wall damage may account for the cell-wall biosynthesis crippled all over the cell surface in cell-wall thickening strains, thus leading cells to lysis as a result of the osmotic pressure of cytoplasm.

Dbv27 = Dbv27 (Nonomuraea gerenzanensis, UniProt Q7WZ64); assay: ITC binding affinity; conditions: ITC versus Dbv27
Chain of Dbv27 (Q7WZ64 entry or part of it): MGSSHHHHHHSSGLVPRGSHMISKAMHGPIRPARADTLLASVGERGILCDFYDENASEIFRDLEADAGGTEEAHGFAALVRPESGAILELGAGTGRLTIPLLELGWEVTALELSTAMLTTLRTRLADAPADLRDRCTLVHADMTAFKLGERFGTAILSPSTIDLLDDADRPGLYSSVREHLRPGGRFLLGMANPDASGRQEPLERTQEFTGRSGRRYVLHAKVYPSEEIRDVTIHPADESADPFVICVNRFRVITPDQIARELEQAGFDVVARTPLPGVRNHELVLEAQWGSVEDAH
Protocol: Isothermal Titration Calormetry (ITC) Analysis
A stock solution (50 mM) was prepared by dissolving r6,GlcNAc pseudoaglycone (9) in 50% DMSO. The 1 mM protein solutions of Orf2*, Orf2*T and Dbv27 were prepared in a 50 mM HEPES buffer solution at pH 8.0. The solution (50 mM HEPES, pH8.0 and 10% DMSO) that contained compound 9 (1 mM) or S-adenosylmethionine (SAM) (1 mM) in a 40 μL injection syringe was titrated into the Orf2*, Orf2*T or Dbv27 (0.1 mM) protein solution, which was placed in the sample cell of a 200 μL volume. Each titration consisted of 16 injections of a 2 μL4 s^−1 duration in an interval of 150 seconds. Data analysis was performed by software.

CN[C@H](CC(C)C)C(=O)N[C@H]1C(=O)N[C@@H](CC(N)=O)C(=O)N[C@H]2C(=O)N[C@H]3C(=O)N[C@H](C(=O)N[C@H](C(=O)O)c4cc(O)cc(O)c4-c4cc3ccc4O)[C@H](O)c3ccc(c(Cl)c3)Oc3cc2cc(c3O[C@@H]2O[C@H](CO)[C@@H](O)[C@H](O)[C@H]2O[C@H]2C[C@](C)(N)[C@H](O)[C@H](C)O2)Oc2ccc(cc2Cl)[C@H]1O [Compound 2, vancomycin, reference compound]
MIC (MRSA ATCC 43300; Staphylococcus aureus): 1 µg/mL (≈ 0.69 µM)
MIC (MRSA ATCC 700698 hVISA; Staphylococcus aureus): 4 µg/mL (≈ 2.76 µM)
MIC (MRSA ATCC 700787 VRSA; Staphylococcus aureus): 16 µg/mL (≈ 11 µM)
MIC (MRSA ATCC 700789 VRSA; Staphylococcus aureus): 16 µg/mL (≈ 11 µM)
MIC (MRSA ATCC BAA-38; Staphylococcus aureus): 1 µg/mL (≈ 0.69 µM)
MIC (MRSA ATCC BAA-39; Staphylococcus aureus): 1 µg/mL (≈ 0.69 µM)
MIC (MRSA ATCC BAA-44; Staphylococcus aureus): 2 µg/mL (≈ 1.38 µM)
MIC (S. aureus ATCC 29213; Staphylococcus aureus, ATCC29213): 1 µg/mL (≈ 0.69 µM)
MIC (E. faecalis ATCC 29302; Enterococcus faecalis, ATCC29302): 2 µg/mL (≈ 1.38 µM)
MIC (VRE ATCC 700221 (vanA); Enterococcus): > 128 µg/mL
MIC (VRE ATCC 700425 (vanC); Enterococcus): 16 µg/mL (≈ 11 µM)
MIC (VRE ATCC 700802 (vanB); Enterococcus): 64 µg/mL (≈ 44.2 µM)
MIC (A. baumannii ATCC 19606; Acinetobacter baumannii, ATCC19606): 200 µM and 297 µg/mL
MIC (A. baumannii ATCC 19606; Acinetobacter baumannii, ATCC19606, read-out: MIC on AB): > 190 µg/mL
cell wall morphology by TEM (MRSA ATCC 700787): floppy

N[C@H]1[C@H](O[C@@H]2c3ccc(c(Cl)c3)Oc3cc4cc(c3O)Oc3ccc(cc3Cl)C[C@H]3NC(=O)[C@H](N)c5ccc(O)c(c5)Oc5cc(O)cc(c5)[C@H](NC3=O)C(=O)N[C@H]4C(=O)N[C@H]3C(=O)N[C@@H]2C(=O)N[C@H](C(=O)O)c2cc(O)cc(O)c2-c2cc3ccc2O)O[C@H](CO)[C@@H](O)[C@@H]1O [Compound 12, r6,Glm pseudoaglycone]
Kd (Dbv27): 5 µM

C[S+](CC[C@H](N)C(=O)[O-])C[C@H]1O[C@@H](n2cnc3c(N)ncnc32)[C@H](O)[C@@H]1O (stereo partly shown) [SAM, S-adenosylmethionine, reference compound]
Kd (Dbv27): 10 µM

CC(=O)N[C@H]1[C@H](O[C@@H]2c3ccc(c(Cl)c3)Oc3cc4cc(c3O)Oc3ccc(cc3Cl)C[C@H]3NC(=O)[C@H](N(C)C)c5ccc(O)c(c5)Oc5cc(O)cc(c5)[C@H](NC3=O)C(=O)N[C@H]4C(=O)N[C@H]3C(=O)N[C@@H]2C(=O)N[C@H](C(=O)O)c2cc(O)cc(O)c2-c2cc3ccc2O)O[C@H](CO)[C@@H](O)[C@@H]1O [Compound 10, r1,Me2-6,GlcNAc Tei-pseudoaglycone]
MIC (MRSA ATCC 43300; MRSA ATCC 43300): 0.25 µg/mL (≈ 0.175 µM)
MIC (MRSA ATCC 700698 hVISA; MRSA ATCC 700698 hVISA): 1 µg/mL (≈ 0.699 µM)
MIC (MRSA ATCC 700787 VRSA; MRSA ATCC 700787 VRSA): 0.5 µg/mL (≈ 0.35 µM)
MIC (MRSA ATCC 700789 VRSA; MRSA ATCC 700789 VRSA): 2 µg/mL (≈ 1.4 µM)
MIC (MRSA ATCC BAA-38; MRSA ATCC BAA-38): 0.25 µg/mL (≈ 0.175 µM)
MIC (MRSA ATCC BAA-39; MRSA ATCC BAA-39): 0.125 µg/mL (≈ 0.0874 µM)
MIC (MRSA ATCC BAA-44; MRSA ATCC BAA-44): 0.125 µg/mL (≈ 0.0874 µM)
MIC (S. aureus ATCC 29213; SA ATCC 29213): 0.25 µg/mL (≈ 0.175 µM)
MIC (E. faecalis ATCC 29302; EF ATCC 29302): 2 µg/mL (≈ 1.4 µM)
MIC (VRE ATCC 700221 (vanA); VRE ATCC 700221 (vanA)): >128 µg/mL
MIC (VRE ATCC 700425 (vanC); VRE ATCC 700425 (vanC)): 4 µg/mL (≈ 2.8 µM)
MIC (VRE ATCC 700802 (vanB); VRE ATCC 700802 (vanB)): 4 µg/mL (≈ 2.8 µM)
MIC (A. baumannii ATCC 19606; A. baumannii ATCC 19606, Table 3, first figure of cell): > 200 µM
MIC (A. baumannii ATCC 19606; A. baumannii ATCC 19606, Table 3, second figure of cell): > 285.67 µg/mL
